# According to US20180353501A1 (Arvinas, Inc., priority 2017, published 2018):
# Like-named read-outs stand apart in the source and are kept apart here.
# Assays:
# [1] = molecular target: T1, MAK (Homo sapiens, UniProt P20794); assay: KINOMEscan in vitro kinase binding; details: screened at 1000 nM; lower number = stronger binding
# T1 construct: purchased DiscoverRx Corporation (KINOMEscan platform, service)
# Method: In Vitro Kinase Binding Affinity Determination for Example 1 and Example 2.
# PROTAC in vitro binding affinities (Kd) to c-Met was determined using the KINOMEscan™ platform (DiscoverRx Corporation). The compounds were solubilized in DMSO and sent to DiscoverRx Corporation as 10 μM stock solutions.
# Example 1 and Example 2 were screened at a 1000 nM concentration, and the results of the binding interactions are reported in “% Ctrl”, where a lower number indicates stronger binding. % Ctrl=[(test compound signal−positive control signal)/(negative control signal−positive control signal)]×100, wherein the negative control was DMSO.
# [2] = Pharmacokinetics of intraperitoneal or intravenous injection in CD1 mice (plasma, LC/MS/MS); type: in vivo; details: for concentration at 0.25 h / concentration at 0.5 h / concentration at 1 h / concentration at 2 h / concentration at 4 h / concentration at 8 h / concentration at 24 h / concentration at 0.033 h / concentration at 0.083 h: male, CD1, mouse, plasma
# Method: Pharmacokinetics of Intraperitoneal or Intravenous Injection of Example 1 or Example 2.
# The pharmacokinetics of Example 1 and 2 was examined for intraperitoneal and intravenous administration. The desired serial concentrations of working solutions were achieved by diluting stock solution (1 mg/mL in DMSO) of analyte with methanol. In particular, 20 μL of working solutions (1, 2, 5, 10, 50, 100, 500, 1000, 2000 ng/mL) were added to 20 μL of the blank CD1 mice plasma to achieve calibration standards of 1-2000 ng/mL (1, 2, 5, 10, 50, 100, 500, 1000, 2000 ng/mL) in a total volume of 40 pt. Dose of IV and IP were diluted by 1000 fold and 10000 with methanol, 20 μL of the diluted dose solutions were added to 20 μL of the blank CD1 mice plasma to achieve dose samples. Next, 40 μL standards and 40 μL dose samples were added to 20 μL of assay Internal Standard (100 ng/mL) and 200 μL of acetonitrile for precipitating protein respectively. Then the samples were vortexed for 30 seconds. After centrifugation at 4 degree Celsius, 4000 rpm for 15 min, the supernatant was diluted 3 times with water. Then, 10 μL of the diluted supernatant was injected into the LC/MS/MS system for quantitative analysis.
# Examples 1 and 2 were administered intravenously (5 second injection of 10% HP-b-CD and 40 mM sodium acetate and 40 mM NaCl in water, pH4.5) or intraperitoneally (5% EtOH and 5% Solutol HS15 in D5W(ESD-2)) to 6-8 week old male CD1 mice (3 mice per treatment group for a total of 12 mice) at the time points indicated below in Table 3. The mice had free access to food and water.
# Dorsal metatarsal vein samples (30 μL), except that the final sample was acquired via a heart puncture, were taken from the mice at the same the administration time points as shown in Table 2.
# The data for Example 1 is shown below in FIG. 5 and Tables 5 (FIG. 6), 6 and 7. The data for Example 2 is shown in FIG. 7 and Tables 8 (FIG. 8), 9, and 10.
# [3] = ip, 10 mg/kg, IP 10 mg/kg, read-out: Conc. Mean
# [4] = ip, 10 mg/kg, IP 10 mg/kg, read-out: Conc. Mouse 1
# [5] = ip, 10 mg/kg, IP 10 mg/kg, read-out: Conc. Mouse 2
# [6] = ip, 10 mg/kg, IP 10 mg/kg, read-out: Conc. Mouse 3
# [7] = iv, 1 mg/kg, IV 1.0 mg/kg, read-out: Conc. Mean
# [8] = iv, 1 mg/kg, IV 1.0 mg/kg, read-out: Conc. Mouse 1
# [9] = iv, 1 mg/kg, IV 1.0 mg/kg, read-out: Conc. Mouse 2
# [10] = iv, 1 mg/kg, IV 1.0 mg/kg, read-out: Conc. Mouse 3
# T1 sequence (P20794 whole entry): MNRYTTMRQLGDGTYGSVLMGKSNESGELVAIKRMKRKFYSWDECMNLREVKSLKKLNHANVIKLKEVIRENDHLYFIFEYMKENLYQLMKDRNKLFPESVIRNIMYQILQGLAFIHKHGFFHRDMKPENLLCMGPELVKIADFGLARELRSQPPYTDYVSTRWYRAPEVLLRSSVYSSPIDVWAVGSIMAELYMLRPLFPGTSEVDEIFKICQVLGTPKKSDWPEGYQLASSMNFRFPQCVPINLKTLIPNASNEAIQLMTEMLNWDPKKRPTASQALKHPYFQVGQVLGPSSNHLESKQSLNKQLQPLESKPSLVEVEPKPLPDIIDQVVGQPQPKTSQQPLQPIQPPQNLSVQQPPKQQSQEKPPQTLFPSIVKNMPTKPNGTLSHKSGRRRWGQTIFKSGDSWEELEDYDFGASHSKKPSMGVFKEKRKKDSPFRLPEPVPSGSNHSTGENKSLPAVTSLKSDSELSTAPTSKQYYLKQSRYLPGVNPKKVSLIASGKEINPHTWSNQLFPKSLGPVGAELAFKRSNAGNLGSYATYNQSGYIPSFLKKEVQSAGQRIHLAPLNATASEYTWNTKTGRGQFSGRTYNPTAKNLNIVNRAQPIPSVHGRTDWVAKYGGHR
structure (smiles),measurement,setting,value
COc1cc2c(Oc3ccc(NC(=O)C4(C(=O)Nc5ccc(F)cc5)CC4)cc3F)ccnc2cc1OCCCOCCCOCCC(=O)N[C@H](C(=O)N1C[C@H](O)C[C@H]1C(=O)NCc1ccc(-c2scnc2C)cc1)C(C)(C)C [Example 1],% Ctrl,[1],92 % Ctrl
same,Conc. Mouse 1,"[2]; IV 1.0 mg/kg, 24 h",BLOQ
same,Conc. Mouse 2,"[2]; IV 1.0 mg/kg, 24 h",BLOQ
same,concentration at 0.25 h,[2]; [3],2200 ng/mL
same,concentration at 0.25 h,[2]; [4],3420 ng/mL
same,concentration at 0.25 h,[2]; [5],2180 ng/mL
same,concentration at 0.25 h,[2]; [6],990 ng/mL
same,concentration at 0.5 h,[2]; [3],3310 ng/mL
same,concentration at 0.5 h,[2]; [4],5210 ng/mL
same,concentration at 0.5 h,[2]; [5],2500 ng/mL
same,concentration at 0.5 h,[2]; [6],2210 ng/mL
same,concentration at 1 h,[2]; [3],5530 ng/mL
same,concentration at 1 h,[2]; [4],4470 ng/mL
same,concentration at 1 h,[2]; [5],9060 ng/mL
same,concentration at 1 h,[2]; [6],3050 ng/mL
same,concentration at 2 h,[2]; [3],7500 ng/mL
same,concentration at 2 h,[2]; [4],5740 ng/mL
same,concentration at 2 h,[2]; [5],6210 ng/mL
same,concentration at 2 h,[2]; [6],10500 ng/mL
same,concentration at 4 h,[2]; [3],4520 ng/mL
same,concentration at 4 h,[2]; [4],6340 ng/mL
same,concentration at 4 h,[2]; [5],3740 ng/mL
same,concentration at 4 h,[2]; [6],3460 ng/mL
same,concentration at 8 h,[2]; [3],411 ng/mL
same,concentration at 8 h,[2]; [4],476 ng/mL
same,concentration at 8 h,[2]; [5],329 ng/mL
same,concentration at 8 h,[2]; [6],429 ng/mL
same,concentration at 24 h,"[2]; ip, 10 mg/kg, IP 10 mg/kg, 24 h, read-out: Conc. Mean",12.3 ng/mL
same,concentration at 24 h,"[2]; ip, 10 mg/kg, IP 10 mg/kg, 24 h, read-out: Conc. Mouse 1",12.2 ng/mL
same,concentration at 24 h,"[2]; ip, 10 mg/kg, IP 10 mg/kg, 24 h, read-out: Conc. Mouse 2",9.43 ng/mL
same,concentration at 24 h,"[2]; ip, 10 mg/kg, IP 10 mg/kg, 24 h, read-out: Conc. Mouse 3",15.1 ng/mL
same,concentration at 0.033 h,[2]; [7],2350 ng/mL
same,concentration at 0.033 h,[2]; [8],2050 ng/mL
same,concentration at 0.033 h,[2]; [9],2820 ng/mL
same,concentration at 0.033 h,[2]; [10],2190 ng/mL
same,concentration at 0.083 h,[2]; [7],1530 ng/mL
same,concentration at 0.083 h,[2]; [8],1200 ng/mL
same,concentration at 0.083 h,[2]; [9],1810 ng/mL
same,concentration at 0.083 h,[2]; [10],1590 ng/mL
same,concentration at 0.25 h,[2]; [7],691 ng/mL
same,concentration at 0.25 h,[2]; [8],491 ng/mL
same,concentration at 0.25 h,[2]; [9],991 ng/mL
same,concentration at 0.25 h,[2]; [10],590 ng/mL
same,concentration at 0.5 h,[2]; [7],397 ng/mL
same,concentration at 0.5 h,[2]; [8],280 ng/mL
same,concentration at 0.5 h,[2]; [9],497 ng/mL
same,concentration at 0.5 h,[2]; [10],413 ng/mL
same,concentration at 1 h,[2]; [7],143 ng/mL
same,concentration at 1 h,[2]; [8],142 ng/mL
same,concentration at 1 h,[2]; [9],135 ng/mL
same,concentration at 1 h,[2]; [10],153 ng/mL
same,concentration at 2 h,[2]; [7],70.3 ng/mL
same,concentration at 2 h,[2]; [8],55.5 ng/mL
same,concentration at 2 h,[2]; [9],92.9 ng/mL
same,concentration at 2 h,[2]; [10],62.3 ng/mL
same,concentration at 4 h,[2]; [7],15.4 ng/mL
same,concentration at 4 h,[2]; [8],16.8 ng/mL
same,concentration at 4 h,[2]; [9],15.4 ng/mL
same,concentration at 4 h,[2]; [10],13.9 ng/mL
same,concentration at 8 h,[2]; [7],8.6 ng/mL
same,concentration at 8 h,[2]; [8],10.1 ng/mL
same,concentration at 8 h,[2]; [9],10.6 ng/mL
same,concentration at 8 h,[2]; [10],5.2 ng/mL
same,concentration at 24 h,"[2]; iv, 1 mg/kg, IV 1.0 mg/kg, 24 h, read-out: Conc. Mouse 3",0.971 ng/mL
